{"source": "paper PMC9851200", "about": "“Multiparameter phenotypic screening for endogenous TFEB and TFE3 translocation identifies novel chemical series modulating lysosome function” (Autophagy, 2022)", "assay_in_all_cases": "biochemical", "assay_type_in_all_cases": "binding", "key": {"[1]": {"molecular_target": "cellular kinases of SH-SY5Y cells (Homo sapiens, UniProt O00329)", "conditions": "2µM; SH-SY5Y cells; Labeling Site ATP; VNWLAHNVSKDNRQ; read-out: KiNativ in-cell binding, % Inhibition, PIK3CD", "excerpt": "(§1) As KINOMEscan is an in vitro assay, and as different cell types have variable kinase expression profiles we sought to determine the kinase binding profile in our SH-SY5Y TFEB-relocalization cell model. […] Bound kinases were pulled down and analyzed by mass spectrometry to determine the in situ kinase binding profile for each compound."}, "[2]": {"molecular_target": "cellular kinases of SH-SY5Y cells (Homo sapiens, UniProt P07948)", "conditions": "2µM; SH-SY5Y cells; labeling site Lys1; peptide VAVKTLKPGTMSVQAFLEEANLMK", "excerpt": "as §1"}, "[3]": {"molecular_target": "cellular kinases of SH-SY5Y cells (Homo sapiens, UniProt P10398)", "conditions": "2µM; SH-SY5Y cells; Labeling Site Lys2; DLKSNNIFLHEGLTVK; read-out: KiNativ in-cell binding, % Inhibition, ARAF", "excerpt": "as §1"}, "[4]": {"molecular_target": "cellular kinases of SH-SY5Y cells (Homo sapiens, UniProt P49841)", "conditions": "read-out: KiNativ in-cell binding, % Inhibition, GSK3B", "excerpt": "as §1"}, "[5]": {"molecular_target": "cellular kinases of SH-SY5Y cells (Homo sapiens, UniProt P53350)", "sequence (P53350 whole entry)": "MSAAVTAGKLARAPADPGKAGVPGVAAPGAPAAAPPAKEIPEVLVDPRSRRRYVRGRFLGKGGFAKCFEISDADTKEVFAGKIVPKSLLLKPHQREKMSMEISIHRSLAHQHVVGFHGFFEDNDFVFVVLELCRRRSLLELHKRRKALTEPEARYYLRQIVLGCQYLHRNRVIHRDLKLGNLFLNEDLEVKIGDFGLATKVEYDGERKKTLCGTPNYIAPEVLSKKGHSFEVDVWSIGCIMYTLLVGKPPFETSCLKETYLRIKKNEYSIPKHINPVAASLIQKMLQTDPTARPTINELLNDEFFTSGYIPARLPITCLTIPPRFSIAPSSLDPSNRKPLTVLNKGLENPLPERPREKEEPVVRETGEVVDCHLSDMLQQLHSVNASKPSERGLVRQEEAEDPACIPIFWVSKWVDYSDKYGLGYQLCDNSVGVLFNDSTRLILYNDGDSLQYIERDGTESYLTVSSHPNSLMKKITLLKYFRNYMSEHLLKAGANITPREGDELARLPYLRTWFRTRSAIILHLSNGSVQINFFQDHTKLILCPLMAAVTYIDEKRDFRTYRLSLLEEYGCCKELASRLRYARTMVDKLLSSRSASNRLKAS", "conditions": "2µM, SH-SY5Y cells, read-out: KiNativ in-cell binding, % Inhibition, PLK1", "excerpt": "as §1"}, "[6]": {"molecular_target": "T1, cellular kinases of SH-SY5Y cells (Homo sapiens, UniProt Q00537)", "T1 construct": "endogenous in cells; host or cells: SH-SY5Y", "conditions": "2µM; SH-SY5Y cells; Labeling Site Lys2; DLKPQNLLINEK; read-out: KiNativ in-cell binding, % Inhibition, CDK17/PCTAIRE2", "excerpt": "as §1"}, "[7]": {"molecular_target": "T2, cellular kinases of SH-SY5Y cells (Homo sapiens, UniProt Q13523)", "T2 construct": "endogenous in cells; host or cells: SH-SY5Y", "conditions": "2µM; SH-SY5Y cells; Labeling Site Lys2; CNILHADIKPDNILVNESK; read-out: KiNativ in-cell binding, % Inhibition, PRPF4B", "excerpt": "as §1"}, "[8]": {"molecular_target": "cellular kinases of SH-SY5Y cells (Homo sapiens, UniProt Q13535)", "conditions": "2µM; SH-SY5Y cells; Labeling Site ATP; FYIMMCKPK; read-out: KiNativ in-cell binding, % Inhibition, ATR", "excerpt": "as §1"}, "[9]": {"molecular_target": "cellular kinases of SH-SY5Y cells (Homo sapiens, UniProt Q13557)", "conditions": "2µM; SH-SY5Y cells; Labeling Site Lys1; IPTGQEYAAKIINTKK; read-out: KiNativ in-cell binding, % Inhibition, CaMK2d", "excerpt": "as §1"}, "[10]": {"molecular_target": "T3, cellular kinases of SH-SY5Y cells (Homo sapiens, UniProt Q14004)", "T3 construct": "endogenous in cells; host or cells: SH-SY5Y", "T3 sequence (Q14004 whole entry)": "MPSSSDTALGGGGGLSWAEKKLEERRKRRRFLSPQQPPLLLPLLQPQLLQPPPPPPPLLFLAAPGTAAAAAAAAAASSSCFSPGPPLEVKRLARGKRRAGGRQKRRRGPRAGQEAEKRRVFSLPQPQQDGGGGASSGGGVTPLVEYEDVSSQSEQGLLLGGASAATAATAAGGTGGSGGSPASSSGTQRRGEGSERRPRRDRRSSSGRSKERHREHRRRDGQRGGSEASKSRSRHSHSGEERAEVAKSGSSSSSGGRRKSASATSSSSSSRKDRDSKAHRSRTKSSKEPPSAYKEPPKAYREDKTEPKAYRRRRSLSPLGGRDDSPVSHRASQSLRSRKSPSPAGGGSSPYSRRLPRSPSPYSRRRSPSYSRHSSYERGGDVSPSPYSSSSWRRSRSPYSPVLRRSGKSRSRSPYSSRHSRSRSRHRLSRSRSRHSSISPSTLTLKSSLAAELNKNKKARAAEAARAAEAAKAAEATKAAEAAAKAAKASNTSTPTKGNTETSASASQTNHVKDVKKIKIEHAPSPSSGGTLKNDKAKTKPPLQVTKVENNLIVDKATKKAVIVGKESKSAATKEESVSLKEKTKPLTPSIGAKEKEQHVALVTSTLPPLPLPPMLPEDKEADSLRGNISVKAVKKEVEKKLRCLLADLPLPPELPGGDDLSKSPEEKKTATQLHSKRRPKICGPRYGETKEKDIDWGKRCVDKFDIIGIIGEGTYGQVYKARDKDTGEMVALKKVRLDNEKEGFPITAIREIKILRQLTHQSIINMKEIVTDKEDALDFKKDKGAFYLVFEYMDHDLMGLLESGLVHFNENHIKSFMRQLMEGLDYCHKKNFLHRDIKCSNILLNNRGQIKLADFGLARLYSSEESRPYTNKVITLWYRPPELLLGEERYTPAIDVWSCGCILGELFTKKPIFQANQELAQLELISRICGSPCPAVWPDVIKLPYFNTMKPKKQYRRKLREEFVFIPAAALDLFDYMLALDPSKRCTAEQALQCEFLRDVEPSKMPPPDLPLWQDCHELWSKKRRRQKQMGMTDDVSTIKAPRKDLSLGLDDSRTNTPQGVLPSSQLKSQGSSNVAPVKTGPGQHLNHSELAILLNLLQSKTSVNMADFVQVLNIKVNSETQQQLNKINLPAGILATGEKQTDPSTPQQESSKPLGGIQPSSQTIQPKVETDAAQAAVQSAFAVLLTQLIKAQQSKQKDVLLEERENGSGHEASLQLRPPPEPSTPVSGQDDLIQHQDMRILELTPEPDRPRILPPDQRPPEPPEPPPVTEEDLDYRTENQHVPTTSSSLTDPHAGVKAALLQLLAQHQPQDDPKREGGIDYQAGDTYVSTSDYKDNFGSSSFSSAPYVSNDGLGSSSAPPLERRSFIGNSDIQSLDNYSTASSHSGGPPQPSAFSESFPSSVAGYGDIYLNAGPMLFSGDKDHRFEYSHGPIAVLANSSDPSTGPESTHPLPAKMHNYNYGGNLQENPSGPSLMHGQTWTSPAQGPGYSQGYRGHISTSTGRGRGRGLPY", "conditions": "read-out: KiNativ in-cell binding, % Inhibition, CDK13/CHED", "excerpt": "as §1"}, "[11]": {"molecular_target": "cellular kinases of SH-SY5Y cells (Homo sapiens, UniProt Q14012)", "conditions": "2µM; SH-SY5Y cells; labeling site Lys1; peptide LVAIKCIAK", "excerpt": "as §1"}, "[12]": {"molecular_target": "cellular kinases of SH-SY5Y cells (Homo sapiens, UniProt Q8NEB9)", "sequence (Q8NEB9 whole entry)": "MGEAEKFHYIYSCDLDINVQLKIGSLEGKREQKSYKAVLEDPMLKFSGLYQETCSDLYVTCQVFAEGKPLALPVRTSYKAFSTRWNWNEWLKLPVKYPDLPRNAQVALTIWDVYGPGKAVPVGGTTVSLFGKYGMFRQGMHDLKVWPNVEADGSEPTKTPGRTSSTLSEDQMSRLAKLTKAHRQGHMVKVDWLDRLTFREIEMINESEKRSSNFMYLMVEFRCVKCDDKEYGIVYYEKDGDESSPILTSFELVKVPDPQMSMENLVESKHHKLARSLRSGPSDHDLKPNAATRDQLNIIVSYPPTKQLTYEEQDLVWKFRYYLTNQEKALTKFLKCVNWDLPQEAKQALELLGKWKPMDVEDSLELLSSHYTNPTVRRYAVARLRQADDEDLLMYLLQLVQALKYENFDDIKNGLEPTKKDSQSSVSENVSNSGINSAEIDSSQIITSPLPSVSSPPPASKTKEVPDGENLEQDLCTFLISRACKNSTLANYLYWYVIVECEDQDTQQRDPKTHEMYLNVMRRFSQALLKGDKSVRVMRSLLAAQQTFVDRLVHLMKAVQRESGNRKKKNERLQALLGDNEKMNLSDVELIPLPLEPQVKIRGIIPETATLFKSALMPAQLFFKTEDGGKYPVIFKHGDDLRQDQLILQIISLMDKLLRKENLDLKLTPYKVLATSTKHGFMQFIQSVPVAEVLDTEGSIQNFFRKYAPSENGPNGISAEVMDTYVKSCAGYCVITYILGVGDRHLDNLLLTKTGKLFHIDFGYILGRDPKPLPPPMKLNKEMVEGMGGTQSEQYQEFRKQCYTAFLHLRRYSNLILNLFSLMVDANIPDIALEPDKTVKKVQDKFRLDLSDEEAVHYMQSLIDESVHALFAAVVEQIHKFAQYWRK", "conditions": "2µM, SH-SY5Y cells", "excerpt": "as §1"}, "[13]": {"molecular_target": "T4, cellular kinases of SH-SY5Y cells (Homo sapiens, UniProt Q92918)", "T4 construct": "endogenous in cells; host or cells: SH-SY5Y", "T4 sequence (Q92918 whole entry)": "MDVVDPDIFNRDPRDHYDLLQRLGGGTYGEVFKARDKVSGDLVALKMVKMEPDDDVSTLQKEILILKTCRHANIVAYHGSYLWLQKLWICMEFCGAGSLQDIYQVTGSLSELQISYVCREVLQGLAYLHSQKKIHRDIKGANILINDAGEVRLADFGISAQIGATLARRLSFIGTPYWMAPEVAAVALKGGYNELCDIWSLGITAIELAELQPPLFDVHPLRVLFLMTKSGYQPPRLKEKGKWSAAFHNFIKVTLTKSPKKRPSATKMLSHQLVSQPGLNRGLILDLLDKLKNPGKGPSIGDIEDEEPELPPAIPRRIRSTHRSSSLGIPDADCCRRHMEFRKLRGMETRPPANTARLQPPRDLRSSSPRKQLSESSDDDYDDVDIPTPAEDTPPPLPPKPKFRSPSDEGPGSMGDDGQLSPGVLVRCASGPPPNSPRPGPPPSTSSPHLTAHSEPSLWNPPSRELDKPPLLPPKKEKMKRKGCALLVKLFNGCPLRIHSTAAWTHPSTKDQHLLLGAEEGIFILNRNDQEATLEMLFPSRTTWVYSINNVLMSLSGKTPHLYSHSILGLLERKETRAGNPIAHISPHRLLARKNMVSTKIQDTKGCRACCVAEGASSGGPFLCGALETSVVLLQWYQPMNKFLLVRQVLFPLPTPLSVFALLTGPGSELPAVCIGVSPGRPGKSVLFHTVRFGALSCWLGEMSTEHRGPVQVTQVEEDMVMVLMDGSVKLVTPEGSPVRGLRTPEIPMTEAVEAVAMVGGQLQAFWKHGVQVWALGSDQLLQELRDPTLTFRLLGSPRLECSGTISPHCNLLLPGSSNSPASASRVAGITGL", "conditions": "2µM, SH-SY5Y cells, read-out: KiNativ in-cell binding, % Inhibition, MAP4K1/HPK1", "excerpt": "as §1"}, "[14]": {"molecular_target": "cellular kinases of SH-SY5Y cells (Homo sapiens, UniProt Q9NWZ3)", "sequence (Q9NWZ3 whole entry)": "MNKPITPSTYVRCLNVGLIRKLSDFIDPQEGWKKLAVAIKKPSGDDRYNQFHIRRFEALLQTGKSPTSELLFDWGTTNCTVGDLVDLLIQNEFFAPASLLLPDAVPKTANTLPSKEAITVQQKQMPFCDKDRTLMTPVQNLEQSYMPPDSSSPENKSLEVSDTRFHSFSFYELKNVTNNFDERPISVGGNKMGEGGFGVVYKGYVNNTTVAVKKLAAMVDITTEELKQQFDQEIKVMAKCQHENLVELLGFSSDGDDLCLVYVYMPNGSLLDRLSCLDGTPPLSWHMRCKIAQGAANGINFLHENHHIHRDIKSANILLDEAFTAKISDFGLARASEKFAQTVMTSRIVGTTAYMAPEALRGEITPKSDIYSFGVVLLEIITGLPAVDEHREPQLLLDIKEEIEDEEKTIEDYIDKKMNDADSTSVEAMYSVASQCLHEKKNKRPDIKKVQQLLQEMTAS", "conditions": "2µM, SH-SY5Y cells", "excerpt": "as §1"}, "[15]": {"molecular_target": "T5, cellular kinases of SH-SY5Y cells (Homo sapiens, UniProt Q9UHD2)", "T5 construct": "endogenous in cells; host or cells: SH-SY5Y", "conditions": "2µM; SH-SY5Y cells; labeling site Lys1; peptide TGDLFAIKVFNNISFLRPVDVQMR", "excerpt": "as §1"}, "[16]": {"molecular_target": "T6, cellular kinases of SH-SY5Y cells (Homo sapiens, UniProt Q9Y2H1)", "T6 construct": "endogenous in cells; host or cells: SH-SY5Y", "T6 sequence (Q9Y2H1 whole entry)": "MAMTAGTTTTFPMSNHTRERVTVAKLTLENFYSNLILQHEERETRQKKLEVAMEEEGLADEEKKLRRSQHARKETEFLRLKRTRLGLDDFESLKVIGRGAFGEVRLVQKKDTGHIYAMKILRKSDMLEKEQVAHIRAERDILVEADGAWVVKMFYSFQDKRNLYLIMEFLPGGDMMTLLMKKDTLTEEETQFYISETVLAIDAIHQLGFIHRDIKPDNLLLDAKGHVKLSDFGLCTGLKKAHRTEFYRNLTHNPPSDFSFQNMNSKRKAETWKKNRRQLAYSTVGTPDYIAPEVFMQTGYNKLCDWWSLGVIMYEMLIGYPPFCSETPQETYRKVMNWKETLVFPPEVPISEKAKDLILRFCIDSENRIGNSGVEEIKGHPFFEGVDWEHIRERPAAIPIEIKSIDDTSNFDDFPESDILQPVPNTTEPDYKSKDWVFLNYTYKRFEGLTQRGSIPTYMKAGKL", "conditions": "2µM, SH-SY5Y cells", "excerpt": "as §1"}, "[17]": {"molecular_target": "T7, cellular kinases of SH-SY5Y cells (Homo sapiens, UniProt Q9Y2I7)", "T7 construct": "endogenous in cells; host or cells: SH-SY5Y", "conditions": "2µM; SH-SY5Y cells; Labeling Site ATP; GGKSGAAFYATEDDRFILK; read-out: KiNativ in-cell binding, % Inhibition, PIKFYVE", "excerpt": "as §1"}, "[18]": {"system": "cellular kinases of SH-SY5Y cells", "excerpt": "as §1"}}, "note": "Where two headings read alike, the source gives them in different places."}
{"smiles": "Cc1cccc(-c2nc(Nc3ccc4ncsc4c3)c3ccccc3n2)n1", "note": "[NK140]", "values": [{"measurement": "inhibition at 2 µM", "setting": "[1]", "value": -29.2, "unit": "%"}, {"measurement": "KiNativ in-cell binding, LYN", "setting": "[2]", "value": -32.9}, {"measurement": "inhibition at 2 µM", "setting": "[3]", "value": 28.7, "unit": "%"}, {"measurement": "inhibition at 2 µM", "setting": "[4]", "value": 15.8, "unit": "%"}, {"measurement": "inhibition at 2 µM", "setting": "[5]; Labeling Site Lys1, CFEISDADTKEVFAGKIVPK", "value": 26, "unit": "%"}, {"measurement": "inhibition at 2 µM", "setting": "[5]; Labeling Site Lys2, DLKLGNLFLNEDLEVK", "value": 9, "unit": "%"}, {"measurement": "inhibition at 2 µM", "setting": "[6]", "value": 13.2, "unit": "%"}, {"measurement": "inhibition at 2 µM", "setting": "[7]", "value": 32.3, "unit": "%"}, {"measurement": "inhibition at 2 µM", "setting": "[8]", "value": -42.5, "unit": "%"}, {"measurement": "inhibition at 2 µM", "setting": "[9]", "value": 30.5, "unit": "%"}, {"measurement": "inhibition at 2 µM", "setting": "[10]", "value": -3.7, "unit": "%"}, {"measurement": "KiNativ in-cell binding, CaMK1", "setting": "[11]", "value": -56.2}, {"measurement": "inhibition at 2 µM", "setting": "[12]; Labeling Site ATP, TEDGGKYPVIFKHGDDLRQDQLILQIISLMDK, read-out: KiNativ in-cell binding, % Inhibition, PIK3C3", "value": -69, "unit": "%"}, {"measurement": "KiNativ in-cell binding, PIK3C3", "setting": "[12]; labeling site ATP, peptide TEDGGKYPVIFKHGDDLR", "value": -30.4}, {"measurement": "inhibition at 2 µM", "setting": "[13]; Labeling Site Lys1, DKVSGDLVALKMVK", "value": 6.9, "unit": "%"}, {"measurement": "inhibition at 2 µM", "setting": "[13]; Labeling Site Lys2, DIKGANILINDAGEVR", "value": 30.2, "unit": "%"}, {"measurement": "inhibition at 2 µM", "setting": "[14]; Labeling Site Lys1, GYVNNTTVAVKK, read-out: KiNativ in-cell binding, % Inhibition, IRAK4", "value": -5.5, "unit": "%"}, {"measurement": "KiNativ in-cell binding, IRAK4", "setting": "[14]; labeling site Lys2, peptide DIKSANILLDEAFTAK", "value": -14.3}, {"measurement": "KiNativ in-cell binding, TBK1", "setting": "[15]", "value": -253.9}, {"measurement": "inhibition at 2 µM", "setting": "[16]; Labeling Site Lys1, DTGHIYAMKILR, read-out: KiNativ in-cell binding, % Inhibition, STK38L/NDR2", "value": -47.2, "unit": "%"}, {"measurement": "inhibition at 2 µM", "setting": "[16]; Labeling Site Lys2, DIKPDNLLLDAK, read-out: KiNativ in-cell binding, % Inhibition, NDR2", "value": -39.9, "unit": "%"}, {"measurement": "inhibition at 2 µM", "setting": "[17]", "value": 15.6, "unit": "%"}, {"measurement": "KiNativ in-cell binding, % Inhibition, CaMK2a, CaMK2b, CaMK2d, CaMK2g", "setting": "[18]", "value": 16.4, "unit": "%"}, {"measurement": "KiNativ in-cell binding, AKT1, AKT3", "setting": "[18]", "value": -0.000814}, {"measurement": "KiNativ in-cell binding, % Inhibition, AKT1, AKT3", "setting": "[18]; 2 µM", "value": 34.2, "unit": "%"}, {"measurement": "KiNativ in-cell binding, % Inhibition, STK17A/DRAK1, STK17B/DRAK2", "setting": "[18]; 2µM, SH-SY5Y cells, Labeling Site ATP Loop, GKFAVVR", "value": -4.6, "unit": "%"}, {"measurement": "KiNativ in-cell binding, % Inhibition, AURKA/AurA, AURKB/AurB, AURKC/AurC", "setting": "[18]; 2µM, SH-SY5Y cells, Labeling Site ATP Loop, GKFGNVYLAR", "value": 24.2, "unit": "%"}, {"measurement": "KiNativ in-cell binding, % Inhibition, CSNK1G1, CSNK1G2, CSNK1G3", "setting": "[18]; 2µM, SH-SY5Y cells, Labeling Site ATP Loop, KIGCGNFGELR", "value": 8.1, "unit": "%"}, {"measurement": "KiNativ in-cell binding, % Inhibition, Wnk1, Wnk2, Wnk4", "setting": "[18]; 2µM, SH-SY5Y cells, Labeling Site Activation Loop, IGDLGLATLKR", "value": 6.9, "unit": "%"}, {"measurement": "KiNativ in-cell binding, % Inhibition, MERTK/MER, TYRO3", "setting": "[18]; 2µM, SH-SY5Y cells, Labeling Site Activation Loop, KIYSGDYYR", "value": -4.5, "unit": "%"}, {"measurement": "KiNativ in-cell binding, % Inhibition, KSR1, KSR2", "setting": "[18]; 2µM, SH-SY5Y cells, Labeling Site Activation Loop, SKNVFYDNGK", "value": 5.1, "unit": "%"}, {"measurement": "KiNativ in-cell binding, % Inhibition, MARK3, MARK4", "setting": "[18]; 2µM, SH-SY5Y cells, Labeling Site Lys1, EVAIKIIDK", "value": 2.7, "unit": "%"}, {"measurement": "KiNativ in-cell binding, % Inhibition, MARK1, MARK2", "setting": "[18]; 2µM, SH-SY5Y cells, Labeling Site Lys1, EVAVKIIDK", "value": 1.8, "unit": "%"}, {"measurement": "KiNativ in-cell binding, % Inhibition, TAOK1, TAOK3", "setting": "[18]; 2µM, SH-SY5Y cells, Labeling Site Lys2, DIKAGNILLTEPGQVK", "value": 26.0, "unit": "%"}, {"measurement": "KiNativ in-cell binding, % Inhibition, MAP3K2, MAP3K3", "setting": "[18]; 2µM, SH-SY5Y cells, Labeling Site Lys2, DIKGANILR", "value": 28.5, "unit": "%"}, {"measurement": "KiNativ in-cell binding, % Inhibition, NEK6, NEK7", "setting": "[18]; 2µM, SH-SY5Y cells, Labeling Site Lys2, DIKPANVFITATGVVK", "value": -7.5, "unit": "%"}, {"measurement": "KiNativ in-cell binding, % Inhibition, MARK2, MARK3", "setting": "[18]; 2µM, SH-SY5Y cells, Labeling Site Lys2, DLKAENLLLDADMNIK", "value": -28.6, "unit": "%"}, {"measurement": "KiNativ in-cell binding, % Inhibition, Wnk1, Wnk2, Wnk3", "setting": "[18]; 2µM, SH-SY5Y cells, Labeling Site Lys2, DLKCDNIFITGPTGSVK", "value": 6.4, "unit": "%"}, {"measurement": "KiNativ in-cell binding, % Inhibition, PRKCA/PKCa, PRKCB/PKCb", "setting": "[18]; 2µM, SH-SY5Y cells, Labeling Site Lys2, DLKLDNVMLDSEGHIK", "value": -2.4, "unit": "%"}, {"measurement": "KiNativ in-cell binding, % Inhibition, CSNK1D, CSNK1E", "setting": "[18]; 2µM, SH-SY5Y cells, Labeling Site Lys2, DVKPDNFLMGLGKK", "value": 19.5, "unit": "%"}, {"measurement": "KiNativ in-cell binding, % Inhibition, ROCK1, ROCK2", "setting": "[18]; 2µM, SH-SY5Y cells, Labeling Site Lys2, DVKPDNMLLDK", "value": -44.8, "unit": "%"}, {"measurement": "KiNativ in-cell binding, % Inhibition, MAPKAPK2, MAPKAPK3", "setting": "[18]; 2µM, SH-SY5Y cells, Labeling Site Lys2, DVKPENLLYTSK", "value": 16.8, "unit": "%"}, {"measurement": "KiNativ in-cell binding, % Inhibition, PRKCA/PKCa, PRKCG/PKCg", "setting": "[18]; 2µM, SH-SY5Y cells, Labeling Site Other, NLIPMDPNGLSDPYVKLK", "value": -18.8, "unit": "%"}, {"measurement": "KiNativ in-cell binding, % Inhibition, PI4KA, PI4KAP2", "setting": "[18]; 2µM, SH-SY5Y cells, Labeling Site Unassigned, SGTPMQSAAKAPYLAK", "value": 1.2, "unit": "%"}, {"measurement": "KiNativ in-cell binding, IKKe, TBK1", "setting": "[18]; 2µM, SH-SY5Y cells, labeling site Lys2, peptide DIKPGNIMR", "value": -85.5}, {"measurement": "KiNativ in-cell binding, MYO3A, MYO3B", "setting": "[18]; 2µM, SH-SY5Y cells, labeling site Lys2, peptide DVKGNNILLTTEGGVK", "value": 0.9}, {"measurement": "KiNativ in-cell binding, MAP2K1, MAP2K2", "setting": "[18]; 2µM, SH-SY5Y cells, labeling site Lys2, peptide DVKPSNILVNSR", "value": -3.2}]}
